Measurements published in US9796711B2, “Substituted pyrazolo[3,4-b]pyridin-6-carboxylic acids and method of use” (AbbVie S.àr.l., priority 2015, dated 2017).

Experiments:
[1] = target: T1, ΔF508-CFTR (Homo sapiens, UniProt P13569, DEL508-508); assay: CFTR cell surface levels using HRP-tagged ΔF508-CFTR expressing CFBE cells, in the presence of a co-corrector; assay type: cell-based; conditions: HRP-tagged ΔF508-CFTR expressing CFBE cells, in the presence of 3 μM co-corrector; for EC50: read-out: EC50
T1 construct: host or cells: CFBE41o-, doxycycline-inducible
T1 sequence (P13569 with tags, fused parts or gaps DEL508-508): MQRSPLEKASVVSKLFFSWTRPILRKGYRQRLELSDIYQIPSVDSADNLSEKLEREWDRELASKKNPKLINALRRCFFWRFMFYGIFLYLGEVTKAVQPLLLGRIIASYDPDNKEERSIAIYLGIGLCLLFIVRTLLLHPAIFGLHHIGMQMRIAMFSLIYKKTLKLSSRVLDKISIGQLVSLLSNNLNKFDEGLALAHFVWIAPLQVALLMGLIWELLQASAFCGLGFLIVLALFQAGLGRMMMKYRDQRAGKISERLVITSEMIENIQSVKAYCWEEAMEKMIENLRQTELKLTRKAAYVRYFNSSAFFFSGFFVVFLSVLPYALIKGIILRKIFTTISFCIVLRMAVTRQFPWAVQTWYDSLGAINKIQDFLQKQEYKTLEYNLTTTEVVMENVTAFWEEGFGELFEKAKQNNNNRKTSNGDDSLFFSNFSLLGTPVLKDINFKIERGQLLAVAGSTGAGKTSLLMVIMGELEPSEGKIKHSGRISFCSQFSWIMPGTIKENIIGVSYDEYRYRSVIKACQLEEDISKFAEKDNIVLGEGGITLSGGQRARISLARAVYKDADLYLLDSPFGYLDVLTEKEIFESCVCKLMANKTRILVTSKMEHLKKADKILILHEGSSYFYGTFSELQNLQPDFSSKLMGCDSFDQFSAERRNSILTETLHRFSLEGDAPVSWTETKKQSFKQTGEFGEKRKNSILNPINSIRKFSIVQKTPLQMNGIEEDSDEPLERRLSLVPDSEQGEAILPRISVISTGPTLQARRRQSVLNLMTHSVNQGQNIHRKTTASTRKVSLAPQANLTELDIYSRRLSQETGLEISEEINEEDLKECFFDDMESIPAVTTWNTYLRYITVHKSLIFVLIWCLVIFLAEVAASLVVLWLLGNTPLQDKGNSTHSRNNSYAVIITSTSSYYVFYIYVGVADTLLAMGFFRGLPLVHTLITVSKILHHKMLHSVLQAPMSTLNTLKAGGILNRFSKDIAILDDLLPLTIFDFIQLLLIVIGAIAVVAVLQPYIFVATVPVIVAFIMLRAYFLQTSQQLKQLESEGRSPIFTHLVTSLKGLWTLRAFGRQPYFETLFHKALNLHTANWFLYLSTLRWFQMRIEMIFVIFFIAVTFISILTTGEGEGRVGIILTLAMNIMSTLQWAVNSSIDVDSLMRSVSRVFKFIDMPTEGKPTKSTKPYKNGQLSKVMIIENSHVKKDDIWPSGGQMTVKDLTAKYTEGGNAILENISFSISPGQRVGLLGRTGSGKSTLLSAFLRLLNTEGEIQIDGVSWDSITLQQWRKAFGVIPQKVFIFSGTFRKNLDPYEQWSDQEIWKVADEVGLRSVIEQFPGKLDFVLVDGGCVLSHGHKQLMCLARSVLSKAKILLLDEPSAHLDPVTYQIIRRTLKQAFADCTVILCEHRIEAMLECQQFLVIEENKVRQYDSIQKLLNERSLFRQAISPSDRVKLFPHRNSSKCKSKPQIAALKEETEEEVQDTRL
Outline: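 Cells were seeded with 0.5 μg/mL doxycycline and held 68 h at 37 °C. Test compounds plus 3 μM co-corrector (final 0.1% DMSO) were then added for 20 h at 33 °C. Washed cells received HRP substrate, and luminescence was normalized between DMSO and 3 μM co-corrector controls.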

[2] = target: T1, ΔF508-CFTR; assay: CFTR cell surface levels using HRP-tagged ΔF508-CFTR expressing CFBE cells, intrinsic corrector capacity; assay type: cell-based; conditions: HRP-tagged ΔF508-CFTR CFBE41o- cells, compounds alone (intrinsic corrector capacity), 20 hours at 33° C.; for % Activation: positive control 3 μM corrector; for EC50: read-out: EC50
Outline: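 Here the cells express ΔF508-CFTR with horseradish peroxidase inserted in extracellular loop 4, so only rescued channel at the surface gives luminescent signal. Compounds act on their own, 20 h at the reduced temperature of 33 °C; values are percent activity relative to DMSO and a 3 μM corrector.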

Compound: Cc1cccc(-n2nc(C(C)C)c3c(N4CCC(CF)CC4)cc(C(=O)O)nc32)c1 [compound 348, 4-[4-(fluoromethyl)piperidin-1-yl]-1-(3-methylphenyl)-3-(propan-2-yl)-1H-pyrazolo[3,4-b]pyridine-6-carboxylic acid]
- % Activation [1]: 410.3%
- EC50 [1]: 0.37 µM
- % Activation [2]: 217.2%
- EC50 [2]: 0.553 µM

Compound: O=C(O)c1cc(-c2ccc(N3CCOCC3)cc2)c2c(C3CCC3)nn(-c3cccc(F)c3)c2n1 [compound 349, 3-cyclobutyl-1-(3-fluorophenyl)-4-[4-(morpholin-4-yl)phenyl]-1H-pyrazolo[3,4-b]pyridine-6-carboxylic acid]
- % Activation [1]: 382.73%
- EC50 [1]: 0.236 µM
- % Activation [2]: 208.2%
- EC50 [2]: 0.46 µM

Compound: O=C(O)c1cc(-c2ccc(N3CCOCC3)cc2)c2c(C3CCC3)nn(-c3ccc(F)c(F)c3)c2n1 [compound 350, 3-cyclobutyl-1-(3,4-difluorophenyl)-4-[4-(morpholin-4-yl)phenyl]-1H-pyrazolo[3,4-b]pyridine-6-carboxylic acid]
- % Activation [1]: 397.5%
- EC50 [1]: 0.316 µM
- % Activation [2]: 211%
- EC50 [2]: 0.426 µM

Compound: CC(C)c1nn(C2CCCCC2)c2nc(C(=O)O)cc(-c3ccn(C)c3)c12 [compound 351, 1-cyclohexyl-4-(1-methyl-1H-pyrrol-3-yl)-3-(propan-2-yl)-1H-pyrazolo[3,4-b]pyridine-6-carboxylic acid]
- % Activation [1]: 256.6%
- EC50 [1]: 1.53 µM
- % Activation [2]: 84.055%
- EC50 [2]: 1.61 µM

Compound: Cc1nn(C)cc1-c1cc(C(=O)O)nc2c1c(C(C)C)nn2C1CCCCC1 [compound 352, 1-cyclohexyl-4-(1,3-dimethyl-1H-pyrazol-4-yl)-3-(propan-2-yl)-1H-pyrazolo[3,4-b]pyridine-6-carboxylic acid]
- % Activation [1]: 210.15%
- EC50 [1]: 1.43 µM
- % Activation [2]: 55.175%
- EC50 [2]: 1.51 µM

Compound: O=C(O)c1cc(-c2ccc(N3CCOCC3)cc2)c2c(C3CCC3)nn(-c3cc(F)cc(F)c3)c2n1 [compound 353, 3-cyclobutyl-1-(3,5-difluorophenyl)-4-[4-(morpholin-4-yl)phenyl]-1H-pyrazolo[3,4-b]pyridine-6-carboxylic acid]
- % Activation [1]: 438.65%
- EC50 [1]: 0.459 µM
- % Activation [2]: 224.1%
- EC50 [2]: 0.506 µM

Compound: O=C(O)c1cc(-c2ccc(N3CCOCC3)cc2)c2c(C3CCC3)nn(-c3cccc(C(F)(F)F)c3)c2n1 [compound 354, 3-cyclobutyl-4-[4-(morpholin-4-yl)phenyl]-1-[3-(trifluoromethyl)phenyl]-1H-pyrazolo[3,4-b]pyridine-6-carboxylic acid]
- % Activation [1]: 429.9%
- EC50 [1]: 0.323 µM
- % Activation [2]: 212.07%
- EC50 [2]: 0.45 µM

Compound: Cc1ccc(-n2nc(C3CCC3)c3c(-c4ccc(N5CCOCC5)cc4)cc(C(=O)O)nc32)cc1F [compound 355, 3-cyclobutyl-1-(3-fluoro-4-methylphenyl)-4-[4-(morpholin-4-yl)phenyl]-1H-pyrazolo[3,4-b]pyridine-6-carboxylic acid]
- % Activation [1]: 360.63%
- EC50 [1]: 0.556 µM
- % Activation [2]: 180.03%
- EC50 [2]: 0.74 µM

Compound: O=C(O)c1cc(-c2ccc(N3CCOCC3)cc2)c2c(C3CCC3)nn(-c3ccc(C(F)(F)F)cc3)c2n1 [compound 356, 3-cyclobutyl-4-[4-(morpholin-4-yl)phenyl]-1-[4-(trifluoromethyl)phenyl]-1H-pyrazolo[3,4-b]pyridine-6-carboxylic acid]
- % Activation [1]: 331.9%
- EC50 [1]: 0.428 µM
- % Activation [2]: 152.8%
- EC50 [2]: 0.489 µM

Compound: CN(C)c1ccc(-n2nc(C3CCC3)c3c(-c4ccc(N5CCOCC5)cc4)cc(C(=O)O)nc32)cc1 [compound 357, 3-cyclobutyl-1-[4-(dimethylamino)phenyl]-4-[4-(morpholin-4-yl)phenyl]-1H-pyrazolo[3,4-b]pyridine-6-carboxylic acid]
- % Activation [1]: 274.8%
- EC50 [1]: 0.806 µM
- % Activation [2]: 113.47%
- EC50 [2]: 0.885 µM
